Results on 13 sequences are retold here after article PMC2856764 (Human immunology, 2010).

Ends that are not written are not given here.

Some targets named below: HLA-A*0206 (Homo sapiens, UniProt P04439, D140Y/D185E/D98H/E176V/E277Q/F33Y/G131W/G231S/I119V/I121R/I166T/I218V/L300P/L318F/N151K/N90K/P208A/P217A/Q86G/Q94H/R138H/R169H/T345S); HLA-A*6802 (Homo sapiens, UniProt P04439, A269V/D140Y/D185E/E176V/E277Q/E87N/F33Y/G231S/I121R/I166T/I218V/L180W/L300P/L318F/N151K/P208A/P217A/Q86R/R138H/R169H/S129P/T345S/V36M); HLA-A*0203 (Homo sapiens, UniProt P04439, A173T/D140Y/D185E/D98H/E277Q/G131W/G231S/I119V/I121R/I166T/I218V/L180W/L300P/L318F/N151K/N90K/P208A/P217A/Q86G/Q94H/R138H/R169H/T345S); HLA-A*0201 (Homo sapiens, UniProt P04439, D140Y/D185E/D98H/E176V/E277Q/G131W/G231S/I119V/I121R/I166T/I218V/L300P/L318F/N151K/N90K/P208A/P217A/Q86G/Q94H/R138H/R169H/T345S); HLA-A*0202 (Homo sapiens, UniProt P04439, D140Y/D185E/D98H/E176V/E277Q/G131W/G231S/I119L/I121R/I166T/I218V/L180W/L300P/L318F/N151K/N90K/P208A/P217A/Q67R/Q86G/Q94H/R138H/R169H/T345S); HLA-A*2301 (Homo sapiens, UniProt P04439, D101N/D140Y/D185E/E176V/E190D/F33S/G103R/G107R/H175R/I119L/I121M/I306V/K168Q/K335N/L105A/L300P/N151K/N90K/P307H/Q86E/Q94H/R106L/R138H/R89G/T104I/T345S/V100E/W191G/Y123F); HLA-A*2902 (Homo sapiens, UniProt P04439, A270S/D101N/D185E/E176V/E277Q/E87Q/F33T/G231S/H175R/I121M/I218V/I322F/K168Q/L300P/L318F/M331R/P208A/P217A/Q86L/T323A/T345S/V100A/V358M); HLA-A*3002 (Homo sapiens, UniProt P04439, D101N/D140H/D185E/E176R/F33S/G80R/H175R/K168Q/Q94H/R138E/R41S/V100E); HLA-A*2402 (Homo sapiens, UniProt P04439, D101N/D140Y/D185E/E176V/E190D/F33S/G103R/G107R/I119L/I121M/I306V/K335N/L105A/L180Q/L300P/N151K/N90K/Q86E/Q94H/R106L/R138H/R89G/T104I/T345S/V100E/W191G/Y123F); HLA-B*4001 (Homo sapiens, UniProt P01889, A65T/A93T/A95T/D138N/D98Y/E176V/E69K/N87E/Q56L/Q94N/R180L/S121R/S35A/S48T/T167S/V36M/W171L/Y33H/Y91S); HLA-B*4403 (Homo sapiens, UniProt P01889, A223V/A65T/A93T/A95T/D201E/D98Y/E176V/E187L/E204Q/E69K/G107R/H137Y/K202T/L105A/L119I/N104T/N87E/Q56L/Q94N/R106L/R155S/R180L/S101N/S121R/S35A/S48T/T118I/V36M/W191S/Y140D/Y91S); HLA-B*4002 (Homo sapiens, UniProt P01889, A65T/A93T/A95T/D138N/D201E/D98Y/E176V/E204Q/E69K/K202T/N87E/Q56L/Q94N/R180L/S48T/Y33H/Y91S); HLA-B*4402 (Homo sapiens, UniProt P01889, A223V/A65T/A93T/A95T/D201E/D98Y/E176V/E187L/E204Q/E69K/G107R/H137Y/K202T/L105A/L119I/N104T/N87E/Q56L/Q94N/R106L/R155S/R180D/S101N/S121R/S35A/S48T/T118I/V36M/W191S/Y140D/Y91S); HLA-B*1801 (Homo sapiens, UniProt P01889, A329T/A93T/A95T/C349S/D201E/D54G/D98Y/E176V/E187T/E204Q/E69T/K202T/Q94N/R155S/R180L/S121R/V306I/Y140S/Y195H/Y33H/Y91S); HLA-B*4501 (Homo sapiens, UniProt P01889, A329T/A65T/A93T/A95T/C349S/D138N/D201E/D98Y/E176V/E187L/E204Q/E69K/H137Y/K202T/L119W/N87E/Q56L/Q94N/R155S/R180D/S121R/S35A/S48T/V127L/V306I/V36M/W191S/Y140L/Y33H/Y91S); HLA-B*3501 (Homo sapiens, UniProt P01889, A329T/A93T/A95T/C349S/D201E/D98Y/E176V/E187L/E204Q/E69T/I218V/K202T/L119I/Q94N/R155S/R180L/S121R/S35A/S48A/T118I/V127L/V306I/V36M/Y140S/Y91F); HLA-B*5101 (Homo sapiens, UniProt P01889, A329T/A93T/A95T/C349S/D138N/D201E/D98Y/E187L/E204Q/E69T/G107R/I218V/K202T/L105A/L119W/N104I/Q94N/R106L/R155S/R180L/S101N/S121T/S35A/S48A/V306I/V36M/Y195H/Y91F); HLA-B*5301 (Homo sapiens, UniProt P01889, A329T/A93T/A95T/C349S/D201E/D98Y/E176V/E187L/E204Q/E69T/G107R/I218V/K202T/L105A/L119I/N104I/Q94N/R106L/R155S/R180L/S101N/S121R/S35A/S48A/T118I/V127L/V306I/V36M/Y140S/Y91F); HLA-B*0702 (Homo sapiens, UniProt P01889); HLA-B*5401 (Homo sapiens, UniProt P01889, A329T/C349S/D138N/D201E/E176V/E187T/E204Q/E69G/I76V/K202T/L119W/R155S/R180L/S121T/S35A/S48A/V127L/V306I/V36M/Y140L); HLA-A*0101 (Homo sapiens, UniProt P04439, A114D/A174V/A182V/D101N/D185E/E176A/E190D/L180R/Q94H/R68K/S129P/T187R/V100A/V91M/W191G); HLA-A*2601 (Homo sapiens, UniProt P04439, A114D/A173T/A270S/D101N/D185E/E277Q/E87N/F33Y/G231S/I121R/I218V/K168Q/L180W/L300P/L318F/P208A/P217A/Q86R/Q94H/R138Q/S129P/T187R/T323A/T345S/V100A/V358M).

What all share (assay): biochemical
Holding throughout (type): binding

Regarding FQGRGVFEL [NP.458], the IC50 – broadly, the concentration that gives 50% inhibition – on HLA-A*0206 was 7 nM; on HLA-A*6802, > 10000 nM; against HLA-A*0203 it was 307 nM; at HLA-A*0201, 143 nM; against HLA-A*0202, 7 nM.
As to FQVDCFLWHV [NS1.9], the IC50 amounted to 1 nM on HLA-A*0206; 219 nM against HLA-A*6802; 3 nM against HLA-A*0203; 4 nM at HLA-A*0201; 4 nM on HLA-A*0202.
As to FYIQMCTEL [NP.39], the concentration for half-maximal inhibition (IC50) against HLA-A*2301 was 8 nM; on HLA-A*2902, 1560 nM; against HLA-A*3002, > 10000 nM; against HLA-A*2402 it was 24 nM.
For FYRYGFVANF [PB1.496] the same measures were 13 nM, 812 nM, > 10000 nM and 17 nM.
GERQNATEI [NP.17]: the 50% inhibitory concentration (IC50) against HLA-B*4001 is 199 nM; at HLA-B*4403, > 10000 nM; against HLA-B*4002, 53 nM; against HLA-B*4402, > 10000 nM; against HLA-B*1801, > 10000 nM; on HLA-B*4501 it was 304 nM.
Consider GLFGAIAGFI [HA.345], for which the IC50 against HLA-A*0206 came to 2540 nM; on HLA-A*6802, 1530 nM; on HLA-A*0203 it was 1 nM; against HLA-A*0201 it was 41 nM; on HLA-A*0202, 0.4 nM.
In the case of LPRRSGAAGA [NP.172], the half-maximal inhibitory concentration (IC50) was > 10000 nM against HLA-B*3501; > 10000 nM at HLA-B*5101; > 10000 nM at HLA-B*5301; 2 nM against HLA-B*0702; 47 nM at HLA-B*5401.
LVSDGGPNLY [PB1.590]: the IC50 came out at 399 nM on HLA-A*0101, 479 nM at HLA-A*2902, 57 nM at HLA-A*3002 and 156 nM on HLA-A*2601.
In the case of NMLSTVLGV [PB1.413], the IC50 against HLA-A*0206 is 3 nM; on HLA-A*6802, 1060 nM; against HLA-A*0203, 11 nM; against HLA-A*0201, 4 nM; on HLA-A*0202 it was 5 nM.
On to QEIRTFSFQL [NS2.184], for which the IC50 at HLA-B*4001 was found to be 135 nM; on HLA-B*4403 it was 431 nM; against HLA-B*4002 it was 68 nM; on HLA-B*4402, 102 nM; at HLA-B*1801, 515 nM; against HLA-B*4501, 380 nM.
SEQAAEAMEV [M1.196]: the IC50 turned out to be 2670 nM against HLA-B*4001; 7670 nM against HLA-B*4403; 85 nM on HLA-B*4002; 2640 nM against HLA-B*4402; 1900 nM against HLA-B*1801; 35 nM against HLA-B*4501.
Turning to TEVETYVLSI [M1.5], the 50% inhibitory concentration (IC50) against HLA-B*4001 was determined as 133 nM; on HLA-B*4403, 247 nM; on HLA-B*4002, 195 nM; on HLA-B*4402, 6880 nM; on HLA-B*1801, 136 nM; at HLA-B*4501, 504 nM.
As for YSHGTGTGY [PB1.30], the 50% inhibitory concentration (IC50) is 199 nM against HLA-A*0101, 486 nM on HLA-A*2902, 131 nM on HLA-A*3002 and 5 nM against HLA-A*2601.
